Structures are written as SMILES. pIC50: −log10 of the molar value. Bounds are passed on as bounds.

The target of this assay is T1, purified STEP46 enzyme (Homo sapiens, UniProt P54829).
T1 sequence (P54829 1-565): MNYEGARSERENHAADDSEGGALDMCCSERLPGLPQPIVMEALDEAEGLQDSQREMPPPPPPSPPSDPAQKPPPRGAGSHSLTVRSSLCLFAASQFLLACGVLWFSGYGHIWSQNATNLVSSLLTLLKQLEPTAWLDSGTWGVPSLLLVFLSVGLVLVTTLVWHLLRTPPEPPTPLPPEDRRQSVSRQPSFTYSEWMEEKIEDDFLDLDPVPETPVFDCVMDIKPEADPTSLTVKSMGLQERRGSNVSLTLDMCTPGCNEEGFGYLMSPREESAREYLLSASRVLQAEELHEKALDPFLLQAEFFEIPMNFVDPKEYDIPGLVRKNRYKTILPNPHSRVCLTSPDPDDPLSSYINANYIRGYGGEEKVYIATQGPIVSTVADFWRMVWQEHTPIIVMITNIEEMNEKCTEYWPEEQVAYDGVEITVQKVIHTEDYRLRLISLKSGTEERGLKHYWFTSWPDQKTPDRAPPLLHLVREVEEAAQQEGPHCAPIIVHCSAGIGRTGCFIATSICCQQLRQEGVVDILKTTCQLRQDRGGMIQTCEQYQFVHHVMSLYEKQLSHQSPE
The assay is described as follows: STEP46 biochemical assay (DiFMUP fluorescence phosphatase assay). The settings on record: DiFMUP 10 μM, read-out: STEP IC50. In short, it runs like this:
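Compounds preincubated 30 min at room temperature with purified STEP46 (1 ng/well) in 50 mM Hepes, 1 mM DTT, 0.02% Brij35, then 10 μM DiFMUP (final) added for 90 min at 27 °C; 2% DMSO, fluorescence at 360/460 nm. IC50 from four-parameter fit of % inhibition; activators reported as negative % inhibition at 25, 50 and 100 uM.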
With `CNc1nc(-c2cccnc2)nc2cc(-c3ccc(C)cc3)ccc12` [Compound 1362], the pIC50 is 5.00 to 6.00.
As for `COc1ccc2nc(-c3cccnc3)nc(Nc3nc4ccccc4n3C)c2c1` [Compound 407], the pIC50 was 5.00 to 6.00.
For `CCOc1ccc2nc(-c3cccnc3)nc(Nc3ccc4ccsc4c3)c2c1` [Compound 315], the pIC50 is 5.00 to 6.00.
For `COc1ccc2nc(-c3cccnc3)nc(Nc3ccc4sc(=O)[nH]c4c3)c2c1` [Compound 326], the pIC50 is 5.00 to 6.00.
For `COc1cccc(-c2ccc3c(Nc4ccc(F)c(Cl)c4)nc(-c4cccnc4)nc3c2)c1` [Compound 681], the pIC50 is 5.00 to 6.00.
As to `NC(=O)c1ccccc1Nc1nc(-c2cccnc2)nc2cc(-c3ccc(F)cc3F)ccc12` [Compound 704], the pIC50 was > 6.00.
To `Clc1cc(Cl)cc(Nc2nc(-c3cnccn3)nc3ccccc23)c1` [Compound 1222] belongs 5.00 to 6.00; to `CN(C)c1nc(-c2cccnc2)nc2ccc(-c3ccc(F)cc3F)cc12` [Compound 1381], 5.00 to 6.00; to `Fc1ccc(Nc2nc(-c3cnccn3)nc3ccccc23)cc1F` [Compound 1220], < 5.00.
To `CNc1nc(-c2cccnc2)nc2cc(C)c(-c3ccc(F)cc3F)cc12` [Compound 1415] belongs < 5.00.
Regarding `COc1ccc2nc(-c3cnccn3)nc(Nc3ccc(Cl)c(Cl)c3)c2c1` [Compound 1234], the pIC50 is 5.00 to 6.00.
Take `Fc1ccc(-c2ccc3c(Nc4ccc(F)c(Cl)c4)nc(-c4cccnc4)nc3c2)c(F)c1` [Compound 698]: the pIC50 was > 6.00.
Turning to `COc1ccc2c(Nc3ccc(F)c(Cl)c3)nc(-c3cnccn3)nc2c1` [Compound 1148], the pIC50 was 5.00 to 6.00.
For `COc1ccc2nc(-c3cccnc3)nc(Oc3ccc4[nH]c(=O)ccc4c3)c2c1` [Compound 346] the value was 5.00 to 6.00; for `COc1ccc2nc(-c3cccnc3)nc(Nc3ccc4c(c3)CCC4)c2c1` [Compound 306], < 5.00.
For `COc1ccc2nc(-c3cccnc3)nc(Nc3ccc4ccc(=O)oc4c3)c2c1` [Compound 330], the pIC50 was 5.00 to 6.00.
To `NC(=O)c1ccc(-c2ccc3nc(-c4cccnc4)nc(Nc4ccc(F)c(Cl)c4)c3c2)cc1` [Compound 656] belongs > 6.00; to `CNc1nc(-c2ccnnc2)nc2ccc(-c3cccc(F)c3F)cc12` [Compound 1237], 5.00 to 6.00.
Consider `Cc1cccc2c(Nc3ccc(Cl)c(Cl)c3)nc(-c3cnccn3)nc12` [Compound 1178], for which the negative logarithm of the IC50 (pIC50) is 5.00 to 6.00.
To `COCCN(C)c1nc(-c2cccnc2)nc2ccc(-c3cccc(F)c3F)cc12` [Compound 1391] belongs < 5.00; to `CCOc1ccc2nc(-c3cccnc3)nc(Nc3ccc4c(c3)NC(=O)CO4)c2c1` [Compound 336], > 6.00; to `FC(F)Oc1cccc(Nc2nc(-c3ccnnc3)nc3ccccc23)c1` [Compound 1183], 5.00 to 6.00.
As for `FC(F)Oc1cccc(Nc2nc(-c3ccncn3)nc3ccccc23)c1` [Compound 1208], the pIC50 is < 5.00.
To `COc1ccc2nc(-c3cccnc3)nc(Nc3ccc4ccn(C)c4c3)c2c1` [Compound 303] belongs 5.00 to 6.00.
Turning to `Clc1ccc2c(Nc3ccc(Cl)c(Cl)c3)nc(-c3cnccn3)nc2c1` [Compound 1140], the pIC50 was > 6.00.
For `Cc1cccc(CNc2nc(-c3cccnc3)nc3ccc(-c4ccc(F)cc4F)cc23)n1` [Compound 1437] the value was 5.00 to 6.00; for `CNc1nc(-c2cccnc2)nc2c(C)c(-c3ccc(F)cc3)ccc12` [Compound 1447], < 5.00; for `COc1ccc2nc(-c3cccnc3)nc(Nc3nc(-c4ccccc4C)cs3)c2c1` [Compound 444], > 6.00.
For the compound `N#Cc1cccc(Nc2nc(-c3cnccn3)nc3ccccc23)c1` [Compound 1221], the pIC50 is < 5.00.
For `CNc1nc(-c2cccnc2)nc2cc(-c3cccc(F)c3)c(C)cc12` [Compound 1402] the value was 5.00 to 6.00.
As for `CNc1nc(-c2cccnc2)nc2c(C)cc(-c3cccc(C#N)c3)cc12` [Compound 1281], the negative-log IC50 (pIC50) is > 6.00.
Consider `COc1ccc2nc(-c3cccnc3)nc(Nc3nc(-c4ccccc4OC)cs3)c2c1` [Compound 436], for which the pIC50 was 5.00 to 6.00.
To `Fc1ccc(Nc2nc(-c3cccnc3)nc3ccc(-c4cccs4)cc23)cc1Cl` [Compound 649] belongs 5.00 to 6.00.
For `FC(F)(F)Oc1cccc(Nc2nc(-c3cnccn3)nc3ccccc23)c1` [Compound 1150], the negative logarithm of the IC50 (pIC50) was < 5.00.
To `Fc1cc(F)cc(-c2ccc3c(Nc4ccc(F)c(Cl)c4)nc(-c4cccnc4)nc3c2)c1` [Compound 675] belongs > 6.00.
Turning to `Clc1cc(Cl)cc(Nc2nc(-c3cnccn3)nc3ccc(Cl)cc23)c1` [Compound 1161], the pIC50 is 5.00 to 6.00.
Consider `CNc1nc(-c2cccnc2)nc2c(C)c(-c3cccc(OC)c3)ccc12` [Compound 1456], for which the pIC50 was 5.00 to 6.00.
For `COc1ccc2nc(-c3cccnc3)nc(Nc3nc(-c4ccc(Cl)cc4)cs3)c2c1` [Compound 399] the value was > 6.00.
As for `NC(=O)c1ccccc1Nc1nc(-c2cccnc2)nc2cc(-c3cc(F)cc(F)c3)ccc12` [Compound 707], the pIC50 was > 6.00.
To `CNc1c(-c2cc(F)cc(F)c2)ccc2nc(-c3cccnc3)nc(C)c12` [Compound 1422] belongs 5.00 to 6.00.

The term pIC50 denotes the IC50 on a negative log10 scale, so that one unit is a factor of ten.

The values above are taken from patent US9630947B2, “Therapeutic compounds and related methods of use” (OTSUKA PHARMACEUTICAL CO., LTD., priority 2009, dated 2017).
